In patent publication US7521466B2, “Dipeptide phenyl ethers” (Bexel Pharmaceuticals, Inc., priority 2003, dated 2009):
Counter-ions that a name gives are not always drawn.

Assays:
ob/ob mice [1] = experiment: Hyperglycemia and OGTT in diabetic obese ob/ob mice; type: in vivo; settings: 50 mg/kg orally, 15-21 days
Description: The ob/ob mice is lacking leptin signaling and show hyperglycemia with significant weight gain. The compounds at a dose 50 mg/kg body weight were given orally in these animals for a period of 15-21 days.

TNFα = experiment: LPS induced TNFα production in THP-1 monocyte cells; type: cell-based, Human; settings: THP-1 cells, LPS 1 μg/ml, 24 hours, ELISA
Description: (§1) Human THP-1 monocyte cells were cultured and incubated with compounds A and B at different concentrations. Cells were then challenged with lipopolysaccharides (LPS) at a concentration of (1 μg/ml) for 24 hours. Cell supernatants were then analyzed for the presence of TNFα, IL-1β and IL-6 cytokines by antibody directed enzyme-linked immunoassay (FIGS. 8A, 8B, and 8C).

ob/ob mice [2] = experiment: Body weight gain, food and water intake in obese diabetic ob/ob mice; type: in vivo; settings: 50 mg/kg orally, 15-21 days
Description: The ob/ob mice are lacking circulating leptin r and show hyperglycemia with significant weight gain. Both the compounds A and B at a dose of 50 mg/kg body weight were given orally in these animals for a period of 15-21 days.

ob/ob mice [3] = experiment: Lipid profile (TG, VLDL, cholesterol, HDL) in ob/ob mice; type: in vivo; settings: 15-day treatment study
Description: The leptin knock-out ob/ob mice is also considered a good model for insulin resistance and hyperlipidemia. Treatment of these animals with the compounds A and B lowered serum triglycerides (FIG. 4A) and VLDL (FIG. 4B) concentration by >50%.

[4] = tested on: 3T3-L1 differentiated adipocytes; experiment: Basal glucose uptake in 3T3-L1 adipocytes; type: cell-based; settings: 72 hr treatment, absence of insulin, control 0.1% DMSO
Description: Basal glucose uptake was carried out in 3T3-L1 differentiated adipocytes. After 72 hr of treatment they were challenged with either rosiglitazone or Compound A, then glucose uptake was carried out in absence of insulin. The control was 0.1% DMSO. Cytochalasin B was added in another set of wells to show the effect is receptor mediated.

IL-6 = experiment: LPS induced IL-6 production in THP-1 monocyte cells; type: cell-based, Human; settings: THP-1 cells, LPS 1 μg/ml, 24 hours, ELISA
Description: as §1

[5] = tested on: Human THP-1 monocyte cells; experiment: Cell viability of THP-1 monocyte cells; type: cell-based; settings: THP-1 cells, highest concentration of the compound
IL-1β = experiment: LPS induced IL-1β production in THP-1 monocyte cells; type: cell-based, Human; settings: THP-1 cells, LPS 1 μg/ml, 24 hours, ELISA
Description: as §1

3T3-L1 fibroblasts = experiment: Adipogenesis (lipid accumulation, oil red O) in 3T3-L1 fibroblasts; type: cell-based; settings: 0.1 and 10 uM, 7 days, oil red O staining
Description: Rosiglitazone and Compound A at 0.1 and 10 uM concentrations, were treated for 7 days and at the end lipid droplets were stained with oil red O and visualized under microscope.

db/db mice [6] = experiment: Testing hyperglycemia in diabetic db/db mice; type: in vivo; settings: for improvement of hyperglycemic conditions (blood glucose): db/db mice, 5, 10 and 50 mg/kg body weight orally, 15-21 days; for drop in blood glucose in treated animals compared to control groups: db/db mice, time course experiment following the oral dose (FIGS. 1A, 2A)
Description: The hypoglycemic effect of compounds A and B have been examined in spontaneous animal models of diabetes, leptin receptor knockout (db/db mice). The db/db mice have defective leptin receptor and show hyperglycemia with significant weight gain. The compound at a dose of 5, 10 (FIGS. 1C, 2C) and 50 mg/kg body weight (FIGS. lB, 2B) was given orally in these animals for a period of 15-21 days.

db/db mice [7] = experiment: Body weight gain, food and water intake in db/db mice; type: in vivo; settings: 50 mg/kg orally, 15-21 days
Description: The db/db mice have defective leptin receptor and show hyperglycemia with significant weight gain. The compound B at a dose of 50 mg/kg body weight was given orally in these animals for a period of 15-21 days.

Structure (SMILES)	OGTT (oral glucose tolerance) (ob/ob mice [1])	improvement of hyperglycemic conditions (ob/ob mice [1])	inhibition of TNFα production (TNFα)	body weight gain compared to controls (ob/ob mice [2])	food intake compared to control groups (ob/ob mice [2])	water intake compared to control groups (ob/ob mice [2])	decrease in serum cholesterol concentrations (ob/ob mice [3]) [%]	basal glucose uptake compared to control cells [4]	inhibition of IL-6 production (IL-6)	cell viability [5]	inhibition of IL-1β production (IL-1β)	adipogenesis (lipid accumulation) compared to rosiglitazone (3T3-L1 fibroblasts)	improvement of hyperglycemic conditions (blood glucose) (db/db mice [6])	drop in blood glucose in treated animals compared to control groups (db/db mice [6]) [%]	body weight gain compared to controls (db/db mice [7])	food intake compared to control groups (db/db mice [7])	water intake compared to control groups (db/db mice [7])
COC(=O)C(Cc1ccc(Oc2ccc(CC3SC(=O)NC3=O)cc2)cc1)NC(=O)C(N)Cc1cnc[nH]1 (centres unmarked) [Compound A, 5-[4-(4-(2-(2-amino-3-imidazol-4-ylpropanamido)-2-methoxycarbonylethyl)phenoxy)benzyl]thiazolidin-2,4-dione dihydrochloride]	significant improvement of OGTT	significant improvements of hyperglycemic conditions	inhibit the production of three major pro-inflammatory cytokines in a dose dependent manner	significant reductions in body weight gain	improved significantly	improved significantly	19	significant increase in basal glucose uptake	inhibit the production of three major pro-inflammatory cytokines in a dose dependent manner	No significant change in cell viability	inhibit the production of three major pro-inflammatory cytokines in a dose dependent manner	did not show any adipogenesis	significant improvements of hyperglycemic conditions	30			
COC(=O)C(Cc1ccc(Oc2ccc(C=C3SC(=O)NC3=O)cc2)cc1)NC(=O)C(N)Cc1c[nH]cn1.Cl.Cl (centres unmarked) [Compound B, 5-[4-(4-(2-(2-Amino-3-imidazol-4-ylpropanamido)-2-methoxycarbonylethyl)phenoxy)benzylidene]thiazolidin-2,4-dione dihydrochloride]	significant improvement of OGTT	significant improvements of hyperglycemic conditions	inhibit the production of three major pro-inflammatory cytokines in a dose dependent manner	significant reductions in body weight gain	improved significantly	improved significantly	19		inhibit the production of three major pro-inflammatory cytokines in a dose dependent manner	No significant change in cell viability	inhibit the production of three major pro-inflammatory cytokines in a dose dependent manner		significant improvements of hyperglycemic conditions	24	significant reductions in body weight gain	improved significantly	improved significantly
